Reference: patent publication US8952024B2, “Herbicidal pyrimidone derivatives” (E I du Pont de Nemours and Company, priority 2009, dated 2015)

Key:
Type in all cases: in vivo
[1] = tested on: large crabgrass (Digitaria sanguinalis); assay: Test A pre-/postemergence plant response
Summary of the method: (§1)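 Injury was scored visually after roughly ten days against untreated controls, 0 = no effect, 100 = complete control. Test chemicals in a surfactant-containing non-phytotoxic solvent were sprayed either onto soil preemergence or onto one- to two-leaf, 2–10 cm plants postemergence.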

[2] = tested on: morningglory (Ipomoea spp.); assay: Test A pre-/postemergence plant response
Summary of the method: as §1

[3] = tested on: velvetleaf (Abutilon theophrasti); assay: Test A pre-/postemergence plant response
Summary of the method: as §1

[4] = tested on: wheat (Triticum aestivum); assay: Test A pre-/postemergence plant response
Summary of the method: as §1

[5] = tested on: cocklebur (Xanthium strumarium); assay: Test B pre-/postemergence plant response
Summary of the method: (§2)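 Each species received compound formulated in non-phytotoxic solvent with surfactant, either at planting into a loam and sand blend or as a foliar spray once plants reached 2 to 18 cm in peat-based medium. Plants stayed in the greenhouse 13 to 15 days before visual evaluation against controls, scored 0 (no effect) to 100 (complete control).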

[6] = tested on: downy bromegrass (Bromus tectorum); assay: Test B pre-/postemergence plant response
Summary of the method: as §2

[7] = tested on: giant foxtail (Setaria faberii); assay: Test B pre-/postemergence plant response
Summary of the method: as §2

[8] = tested on: goosegrass (Eleusine indica); assay: Test B pre-/postemergence plant response
Summary of the method: as §2

[9] = tested on: green foxtail (Setaria viridis); assay: Test B pre-/postemergence plant response
Summary of the method: as §2

kochia (Kochia scoparia) = assay: Test B pre-/postemergence plant response
Summary of the method: as §2

[10] = tested on: morningglory (Ipomoea coccinea); assay: Test B pre-/postemergence plant response
Summary of the method: as §2

[11] = tested on: pigweed (Amaranthus retroflexus); assay: Test B pre-/postemergence plant response
Summary of the method: as §2

[12] = tested on: wheat (Triticum aestivum); assay: Test B pre-/postemergence plant response
Summary of the method: as §2

[13] = Postemergence, 125 g ai/ha, visual injury, 0 to 100 scale (0 no effect, 100 complete control), approx. ten days
[14] = Postemergence, 500 g ai/ha, 0 to 100 scale, 0 = no effect, 100 = complete control, approx. ten days
[15] = Preemergence, 125 g ai/ha, 0 to 100 scale, 0 = no effect, 100 = complete control
[16] = Preemergence, 500 g ai/ha, visual injury, 0 to 100 scale (0 no effect, 100 complete control), approx. ten days
[17] = 250 g ai/ha, Preemergence, 0 to 100 scale
[18] = Postemergence, 31 g ai/ha, scale 0 to 100 (0 no effect, 100 complete control)
[19] = Postemergence, 62 g ai/ha, scale 0 (no effect) to 100 (complete control), 13 to 15 days
[20] = Postemergence, 125 g ai/ha, visual rating after 13 to 15 days, scale 0 (no effect) to 100 (complete control)
[21] = Postemergence, 250 g ai/ha, scale 0 to 100
[22] = Preemergence, 31 g ai/ha, scale 0 to 100 (0 no effect, 100 complete control)
[23] = Preemergence, 62 g ai/ha, scale 0 to 100, 0 no effect, 100 complete control
[24] = Preemergence, 125 g ai/ha, 0 to 100 scale

5-[(1-ethyl-5-hydroxy-1H-pyrazol-4-yl)carbonyl]-2-phenyl-3-(phenylmethyl)-4(3H)-pyrimidinone [Compound 20]
Crabgrass, Large plant response rating [1, 13]: 90
Plant response rating, Crabgrass, Large [1, 14]: 90
Plant response rating, Crabgrass, Large [1, 15]: 50
Plant response rating, Crabgrass, Large [1, 16]: 80
Morningglory plant response rating [2, 13]: 80
Plant response rating, Morningglory [2, 14]: 90
Plant response rating, Morningglory [2, 15]: 0
Plant response rating, Morningglory [2, 16]: 100
Velvetleaf plant response rating [3, 13]: 100
Plant response rating, Velvetleaf [3, 14]: 100
Plant response rating, Velvetleaf [3, 15]: 80
Plant response rating, Velvetleaf [3, 16]: 90
Wheat plant response rating [4, 13]: 0
Plant response rating, Wheat [4, 14]: 10
Plant response rating, Wheat [4, 15]: 0
Plant response rating, Wheat [4, 16]: 0
Plant response rating, Cocklebur [5, 17]: 100
Plant response rating, Cocklebur [5, 18]: 65
Plant response rating, Cocklebur [5, 19]: 80
Plant response rating, Cocklebur [5, 20]: 85
Cocklebur plant response rating [5, 21]: 100
Plant response rating, Cocklebur [5, 22]: 10
Plant response rating, Cocklebur [5, 23]: 10
Cocklebur plant response rating [5, 24]: 70
Plant response rating, Bromegrass, Downy [6, 17]: 0
Plant response rating, Bromegrass, Downy [6, 18]: 0
Plant response rating, Bromegrass, Downy [6, 19]: 0
Plant response rating, Bromegrass, Downy [6, 20]: 0
Bromegrass, Downy plant response rating [6, 21]: 45
Plant response rating, Bromegrass, Downy [6, 22]: 0
Plant response rating, Bromegrass, Downy [6, 23]: 0
Bromegrass, Downy plant response rating [6, 24]: 0
Plant response rating, Foxtail, Giant [7, 17]: 0
Plant response rating, Foxtail, Giant [7, 18]: 15
Plant response rating, Foxtail, Giant [7, 19]: 45
Plant response rating, Foxtail, Giant [7, 20]: 60
Foxtail, Giant plant response rating [7, 21]: 65
Plant response rating, Foxtail, Giant [7, 22]: 0
Plant response rating, Foxtail, Giant [7, 23]: 0
Foxtail, Giant plant response rating [7, 24]: 0
Plant response rating, Goosegrass [8, 17]: 98
Plant response rating, Goosegrass [8, 18]: 15
Plant response rating, Goosegrass [8, 19]: 50
Plant response rating, Goosegrass [8, 20]: 70
Goosegrass plant response rating [8, 21]: 95
Plant response rating, Goosegrass [8, 22]: 30
Goosegrass plant response rating [8, 24]: 85
Plant response rating, Foxtail, Green [9, 17]: 0
Plant response rating, Foxtail, Green [9, 18]: 5
Plant response rating, Foxtail, Green [9, 19]: 10
Plant response rating, Foxtail, Green [9, 20]: 35
Foxtail, Green plant response rating [9, 21]: 50
Plant response rating, Foxtail, Green [9, 22]: 0
Plant response rating, Foxtail, Green [9, 23]: 0
Foxtail, Green plant response rating [9, 24]: 0
Plant response rating, Kochia (kochia (Kochia scoparia); [17]): 100
Plant response rating, Kochia (kochia (Kochia scoparia); [18]): 65
Plant response rating, Kochia (kochia (Kochia scoparia); [19]): 80
Plant response rating, Kochia (kochia (Kochia scoparia); [20]): 85
Kochia plant response rating (kochia (Kochia scoparia); [21]): 95
Plant response rating, Kochia (kochia (Kochia scoparia); [22]): 98
Kochia plant response rating (kochia (Kochia scoparia); [24]): 100
Plant response rating, Morningglory [10, 17]: 100
Plant response rating, Morningglory [10, 18]: 15
Plant response rating, Morningglory [10, 19]: 20
Plant response rating, Morningglory [10, 20]: 55
Morningglory plant response rating [10, 21]: 70
Plant response rating, Morningglory [10, 22]: 100
Plant response rating, Morningglory [10, 23]: 100
Morningglory plant response rating [10, 24]: 100
Plant response rating, Pigweed [11, 17]: 95
Plant response rating, Pigweed [11, 18]: 75
Plant response rating, Pigweed [11, 19]: 90
Plant response rating, Pigweed [11, 20]: 100
Pigweed plant response rating [11, 21]: 100
Plant response rating, Pigweed [11, 22]: 85
Pigweed plant response rating [11, 24]: 90
Plant response rating, Wheat [12, 17]: 0
Plant response rating, Wheat [12, 18]: 0
Plant response rating, Wheat [12, 19]: 0
Plant response rating, Wheat [12, 20]: 10
Wheat plant response rating [12, 21]: 30
Plant response rating, Wheat [12, 22]: 0
Plant response rating, Wheat [12, 23]: 0
Wheat plant response rating [12, 24]: 0
